These results are taken from patent US20260201008A1, “SECRETIN-DERIVED GLP1R SELECTIVE AGONISTS” (GUBRA A/S, priority 2023, published 2026).

Series [1] in a line: Fibril formation of crude library peptides (Thioflavin T). Type of series: physicochemical. Details: key: average ThT fluorescence emission at 480 nm (ex 450 nm), raw units. To be noted: Physical stability of peptides. The procedure, abridged: (§1)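 Turbidity is the absorbance at 600 nm, taken before heating. Fibril signal is the mean ThT emission at 480 nm (450 nm excitation), read every 10 min over 72 h at 40° C with 700 rpm shaking between reads. Peptides at 267 μM, pH 4.0 acetate or pH 7.0 phosphate buffer (50 mM), 4 μM ThT final.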

In a further series the target is GLP1R (Homo sapiens, UniProt P43220). As to the kind of experiment: hGLP1R potency, cAMP accumulation in CHO-K1 cells stably overexpressing hGLP1R. Details: host or cells: CHO-K1. Conditions: for Selectivity: SCTR EC50/GLP1R EC50 ratio; for EC50: cAMP accumulation, CHO-K1 cells overexpressing hGLP1R, read-out: pEC50 hGLPR1 (converted). Type of series: cell-based. The procedure, abridged: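 2000 cells/well, DPBS + 0.05% casein + 0.5 mM IBMX; 30 min RT stimulation; HTRF cAMP detection after 1 h. Purified: 3-fold ×11, n=2; crude: 10-fold ×5, n=1. EC50 by variable-slope fit.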
GLP1R, sequence (P43220 24-463): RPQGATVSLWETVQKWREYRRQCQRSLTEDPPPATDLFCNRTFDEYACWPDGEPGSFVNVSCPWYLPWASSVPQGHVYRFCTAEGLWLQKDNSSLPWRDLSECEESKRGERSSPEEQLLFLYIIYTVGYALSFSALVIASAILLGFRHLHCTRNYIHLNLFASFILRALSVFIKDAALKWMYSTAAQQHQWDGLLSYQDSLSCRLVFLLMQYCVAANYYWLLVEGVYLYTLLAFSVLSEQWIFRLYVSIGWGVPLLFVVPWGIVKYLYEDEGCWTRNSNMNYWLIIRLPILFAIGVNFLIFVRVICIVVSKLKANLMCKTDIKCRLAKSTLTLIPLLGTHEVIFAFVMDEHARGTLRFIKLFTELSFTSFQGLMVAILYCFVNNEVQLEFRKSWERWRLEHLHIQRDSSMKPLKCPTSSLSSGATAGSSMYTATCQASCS
Background: Changes in cAMP serve as a functional read-out for many G protein-coupled receptors.

Series [2] is described as follows: Turbidity of crude library peptides (absorbance at 600 nm). The class given is physicochemical. To be noted: Physical stability of peptides. The procedure, abridged:
as §1

In a further series the target is SCTR (Homo sapiens, UniProt P47872). As to the kind of experiment: hSCTR potency, cAMP accumulation in CHO-K1 cells stably overexpressing hSCTR. Type of series: cell-based. On the set-up: alternatively Euroscreen ES-712-AF; FAST-0161L; host or cells: CHO-K1. Conditions: cAMP accumulation, CHO-K1 cells overexpressing hSCTR; read-out: pEC50 hSCTR (converted). A digest of the protocol: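 Thawed CHO-K1 cells carrying stable hSCTR are plated into casein/IBMX buffer (0.05%, 0.5 mM), dosed immediately for 30 min at room temperature, then cAMP is detected by TR-FRET. Purified peptides run as 11 three-fold dilutions in duplicate, and curves are fitted with variable slope.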
SCTR, sequence (P47872 23-440): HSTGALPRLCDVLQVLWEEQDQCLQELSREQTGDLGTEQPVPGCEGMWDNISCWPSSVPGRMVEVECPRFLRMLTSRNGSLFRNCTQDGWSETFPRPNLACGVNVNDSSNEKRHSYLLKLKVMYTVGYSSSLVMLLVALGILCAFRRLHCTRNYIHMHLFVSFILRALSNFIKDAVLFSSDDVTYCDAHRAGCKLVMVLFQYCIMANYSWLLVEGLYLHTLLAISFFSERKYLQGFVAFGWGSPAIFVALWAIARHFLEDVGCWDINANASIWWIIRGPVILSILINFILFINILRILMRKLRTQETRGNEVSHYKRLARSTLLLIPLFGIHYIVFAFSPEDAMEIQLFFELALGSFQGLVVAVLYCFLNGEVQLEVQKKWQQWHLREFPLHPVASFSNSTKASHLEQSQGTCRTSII

Molecules are shown by their SMILES. Numbered stars: 1 amine (or outer) side, 2 acyl side, 3 side chain; on linkers, the order of the positions; unused ones are H or OH. Square brackets hold non-standard residues; d marks the D form. Side chains are listed from the residue outwards. Peptide text beside a SMILES is read from it. * marks the point of attachment. C20 diacid = O=C(O)CCCCCCCCCCCCCCCCCCC(=O)*; γGlu = O=C(O)[C@H](CCC(=O)[*:2])N[*:1]; AEEA = NCCOCCOCC(=O)O; Aib = CC(C)(N)C(=O)O

On to `CC(C)C[C@H](NC(=O)[C@H](Cc1ccccc1)NC(=O)[C@H](CCCNC(=N)N)NC(=O)[C@H](CCC(N)=O)NC(=O)[C@@H](NC(=O)[C@H](C)NC(=O)[C@H](C)NC(=O)[C@H](CCC(=O)O)NC(=O)[C@H](CCC(=O)O)NC(=O)[C@H](CCCCNC(=O)COCCOCCNC(=O)COCCOCCNC(=O)CC[C@H](NC(=O)CCCCCCCCCCCCCCCCCCC(=O)O)C(=O)O)NC(=O)[C@H](CC(C)C)NC(=O)[C@H](CCCNC(=N)N)NC(=O)[C@H](CO)NC(=O)[C@@H](NC(=O)[C@H](CC(=O)O)NC(=O)[C@H](CO)NC(=O)[C@@H](NC(=O)[C@H](Cc1ccccc1)NC(=O)[C@@H](NC(=O)CNC(=O)[C@H](CCC(=O)O)NC(=O)C(C)(C)NC(=O)[C@@H](N)Cc1c[nH]cn1)[C@@H](C)O)[C@@H](C)O)C(C)C)[C@@H](C)O)C(=O)N[C@@H](CCC(=O)O)C(=O)N[C@@H](Cc1c[nH]cn1)C(=O)N[C@@H](CC(C)C)C(=O)N[C@H](C(N)=O)C(C)C` [compound 65] (H-H[Aib]EGTFTSDVSRLK([AEEA-AEEA-γGlu-C20 diacid])EEAATQRFLEHLV-NH2), for which the Fibril formation in series [1] was determined as 9674. For the same compound, on GLP1R, the Selectivity worked out at 6482 and the EC50 is 0.00316 nM. The “Turbidity (pH 7)” value in series [2] is listed as 0.09. Besides, the EC50 on SCTR is 25.1 nM.

For `CC(C)C[C@H](NC(=O)[C@H](Cc1ccccc1)NC(=O)[C@H](CCCNC(=N)N)NC(=O)[C@H](CCC(N)=O)NC(=O)[C@H](CO)NC(=O)[C@H](C)NC(=O)[C@H](C)NC(=O)[C@H](Cc1ccccc1)NC(=O)[C@H](CCC(=O)O)NC(=O)[C@H](CCCCNC(=O)COCCOCCNC(=O)COCCOCCNC(=O)CC[C@H](NC(=O)CCCCCCCCCCCCCCCCCCC(=O)O)C(=O)O)NC(=O)[C@H](CC(C)C)NC(=O)[C@H](Cc1ccc(O)cc1)NC(=O)[C@H](CO)NC(=O)[C@@H](NC(=O)[C@H](CC(=O)O)NC(=O)[C@H](CO)NC(=O)[C@@H](NC(=O)[C@H](Cc1ccccc1)NC(=O)[C@@H](NC(=O)CNC(=O)[C@H](CCC(=O)O)NC(=O)C(C)(C)NC(=O)[C@@H](N)Cc1c[nH]cn1)[C@@H](C)O)[C@@H](C)O)C(C)C)C(=O)N[C@@H](CCC(=O)O)C(=O)N[C@@H](Cc1c[nH]cn1)C(=O)N[C@@H](CC(C)C)C(=O)N[C@H](C(N)=O)C(C)C` [compound 66] (H-H[Aib]EGTFTSDVSYLK([AEEA-AEEA-γGlu-C20 diacid])EFAASQRFLEHLV-NH2), the Fibril formation in series [1] is reported as 201306. In addition, at GLP1R, the Selectivity is given as 81752 and the EC50 was 0.0398 nM. Also, the “Turbidity (pH 7)” value in series [2] turned out to be 0.08. The EC50 at SCTR was 3160 nM.

Regarding `CC(C)C[C@H](NC(=O)[C@H](CCC(=O)O)NC(=O)[C@H](CCCCNC(=O)COCCOCCNC(=O)COCCOCCNC(=O)CC[C@H](NC(=O)CCCCCCCCCCCCCCCCCCC(=O)O)C(=O)O)NC(=O)[C@H](CC(C)C)NC(=O)[C@@H](NC(=O)[C@H](CO)NC(=O)[C@@H](NC(=O)[C@H](CC(=O)O)NC(=O)[C@H](CO)NC(=O)[C@@H](NC(=O)[C@H](Cc1ccccc1)NC(=O)[C@@H](NC(=O)CNC(=O)[C@H](CCC(=O)O)NC(=O)C(C)(C)NC(=O)[C@@H](N)Cc1c[nH]cn1)[C@@H](C)O)[C@@H](C)O)C(C)C)[C@@H](C)O)C(=O)N[C@@H](C)C(=O)N[C@@H](C)C(=O)N[C@H](C(=O)N[C@@H](CCC(N)=O)C(=O)N[C@@H](CCCNC(=N)N)C(=O)N[C@@H](Cc1ccccc1)C(=O)N[C@@H](CC(C)C)C(=O)N[C@@H](CCC(=O)O)C(=O)N[C@@H](Cc1c[nH]cn1)C(=O)N[C@@H](CC(C)C)C(=O)N[C@H](C(N)=O)C(C)C)[C@@H](C)O` [compound 67] (H-H[Aib]EGTFTSDVSTLK([AEEA-AEEA-γGlu-C20 diacid])ELAATQRFLEHLV-NH2), the Fibril formation in series [1] is given as 5041. Moreover, the Selectivity on GLP1R was determined as 7155. The EC50 on GLP1R was 0.0501 nM; on SCTR it was 398 nM. Besides, in series [2], the “Turbidity (pH 7)” value is given as 0.08.

`CC(C)C[C@H](NC(=O)[C@H](Cc1ccccc1)NC(=O)[C@H](CCCNC(=N)N)NC(=O)[C@H](CCC(N)=O)NC(=O)C(C)(C)NC(=O)[C@H](C)NC(=O)[C@H](C)NC(=O)[C@H](Cc1ccccc1)NC(=O)[C@H](CCC(=O)O)NC(=O)[C@H](CCCCNC(=O)COCCOCCNC(=O)COCCOCCNC(=O)CC[C@H](NC(=O)CCCCCCCCCCCCCCCCCCC(=O)O)C(=O)O)NC(=O)[C@H](CC(C)C)NC(=O)[C@H](CCCNC(=N)N)NC(=O)[C@H](CO)NC(=O)[C@@H](NC(=O)[C@H](CC(=O)O)NC(=O)[C@H](CO)NC(=O)[C@@H](NC(=O)[C@H](Cc1ccccc1)NC(=O)[C@@H](NC(=O)CNC(=O)[C@H](CCC(=O)O)NC(=O)C(C)(C)NC(=O)[C@@H](N)Cc1c[nH]cn1)[C@@H](C)O)[C@@H](C)O)C(C)C)C(=O)N[C@@H](CCC(=O)O)C(=O)N[C@@H](Cc1c[nH]cn1)C(=O)N[C@@H](CC(C)C)C(=O)N[C@H](C(N)=O)C(C)C` [compound 68] (H-H[Aib]EGTFTSDVSRLK([AEEA-AEEA-γGlu-C20 diacid])EFAA[Aib]QRFLEHLV-NH2): the Fibril formation in series [1] is on record as 13444. Further, on GLP1R, the Selectivity was 11839 and the EC50 was 0.1 nM. Moreover, the “Turbidity (pH 7)” value in series [2] is 0.08. Moreover, the EC50 on SCTR was 1260 nM.

`CC(C)C[C@H](NC(=O)[C@H](Cc1ccccc1)NC(=O)[C@H](CCCNC(=N)N)NC(=O)[C@H](CCC(N)=O)NC(=O)[C@H](CCC(=O)O)NC(=O)[C@H](C)NC(=O)[C@H](C)NC(=O)[C@@H](NC(=O)[C@H](CCC(=O)O)NC(=O)[C@H](CCCCNC(=O)COCCOCCNC(=O)COCCOCCNC(=O)CC[C@H](NC(=O)CCCCCCCCCCCCCCCCCCC(=O)O)C(=O)O)NC(=O)[C@H](CC(C)C)NC(=O)[C@H](Cc1ccc(O)cc1)NC(=O)[C@H](CO)NC(=O)[C@@H](NC(=O)[C@H](CC(=O)O)NC(=O)[C@H](CO)NC(=O)[C@@H](NC(=O)[C@H](Cc1ccccc1)NC(=O)[C@@H](NC(=O)CNC(=O)[C@H](CCC(=O)O)NC(=O)C(C)(C)NC(=O)[C@@H](N)Cc1c[nH]cn1)[C@@H](C)O)[C@@H](C)O)C(C)C)[C@@H](C)O)C(=O)N[C@@H](CCC(=O)O)C(=O)N[C@@H](Cc1c[nH]cn1)C(=O)N[C@@H](CC(C)C)C(=O)N[C@H](C(N)=O)C(C)C` [compound 69] (H-H[Aib]EGTFTSDVSYLK([AEEA-AEEA-γGlu-C20 diacid])ETAAEQRFLEHLV-NH2) displayed a Fibril formation in series [1] of 14799. On GLP1R, the Selectivity is recorded as 1030149 and the EC50 is 0.0158 nM. Also, in series [2], the “Turbidity (pH 7)” value was 0.08. The EC50 on SCTR was 15800 nM.
